Converted amounts (≈) assume the structure as drawn. “And” between values parts separate entries of the source, which are not always exact repeats. Equal entries are not always repeated.
Tests used:
[1] = Complexation parameters with 2-HP-β-CD from phase-solubility diagrams; format: physicochemical; details: for increase of the complex stability as compared to L-173: acidic buffer; for Complexation efficiency (CE) / apparent stability constant (KCS): 2-HP-β-CD
Experimental: Thermodynamic functions of the complexation process were determined from the phase solubility diagrams following Higuchi and Connors. The linear AL-type phase-solubility diagrams evidenced the complexes of the first order in respect to cyclodextrin. The equilibrium of the complex formation with 1:1 stoichiometry in the cyclodextrin solution can be described in the following manner:(1) D+CD↔KCD⋅CD where D is the drug molecule, CD is the cyclodextrin molecule, and D·CD is drug/cyclodextrin complex. Respectively, the complexation constant ( KC ) can be expressed by the equation:(2) KC=[D⋅CD]/[D][CD] where [D·CD] is the complex concentration, [CD] is the cyclodextrin concentration, and [D] is the drug concentration. A plot of total solubility ( S2 expressed in molarity—M) in the presence of CD versus CD concentration ( CCD ) (a phase-solubility profile) gives a straight line with a slope equal to (KCS⋅S20/(1+KCS⋅S20)) and intercept equal to S20 from which the apparent stability constants ( KCS ) were estimated via Higuchi–Connors equation [15]:(3) KCS=slope/S20⋅(1−slope), where S20 is the intrinsic solubility of the drug at designated pH in the absence of CD and the slope is the corresponding slope of the phase-solubility diagram.
From CE, the (D:CD) ratio can be derived, which is useful for the estimation of the solubility improvement in CD solutions. Using the CE value, the molar ratio (Drug:CD) was determined:(5) Drug:CD=1:(1+1/CE)

[2] = Phase solubility study (shake-flask) in buffers with 2-HP-β-CD; details: for order of the solubility: compared with reported FCZ and L-173
Experimental: An excess amount of the substance was placed in the glass screw-capped vials with the solvent. The vials were stirred in an air thermostat for a certain period of time (a period of 3 days was estimated to be enough for reaching the equilibrium between the solid and the solvent). Then, the saturated solutions were kept in a thermostat in mild conditions no less than 12 h and thereafter centrifuged at a fixed temperature (Biofuge pico, Thermo Electron LED GmbH, Langenselbold, Germany) for 10 min at 12,000 rpm. […] The experimental results were reported as an average of at least three replicated experiments. Temperature uncertainty was ±0.1 K. The sensitivity of UV spectroscopic determinations was characterized by the values of the limit of detection (LOD)/limit of quantification (LOQ).

With `O=C1S/C(=C\c2ccc(Cl)cc2)C(=O)N1CC(O)CN1CCN(CC(O)(Cn2cncn2)c2ccc(F)cc2F)CC1` (stereo not drawn) [RS-186, (Z)-5-(4-chlorobenzylidene)-3-(3-(4-(2-(2,4-difluorophenyl)-2-hydroxy-3-(1H-1,2,4-triazol-1-yl)propyl)piperazin-1-yl)-2-hydroxypropyl)thiazolidine-2,4-dione] the “increase of the complex stability as compared to L-173” value ([1]; 298.15 K) was roughly 2.8 fold, the “increase of the complex stability as compared to L-173” value ([1]; 315.15 K) was roughly 1.8 fold and the “Complexation efficiency (CE)” value ([1]; pH 2.0, 298.15 K) was 35.4%. The “apparent stability constant (KCS)” value ([1]; pH 2.0, 298.15 K) was 708.9 M⁻¹ and 708.9 ± 71.4 M⁻¹, the “Complexation efficiency (CE)” value ([1]; pH 2.0, 303.15 K) was 36.9% and the “apparent stability constant (KCS)” value ([1]; pH 2.0, 303.15 K) was 688.0 ± 60.3 M⁻¹. For the same molecule, the “Complexation efficiency (CE)” value ([1]; pH 2.0, 310.15 K) was 39.1%, the “apparent stability constant (KCS)” value ([1]; pH 2.0, 310.15 K) was 646.7 ± 61.5 M⁻¹ and the “Complexation efficiency (CE)” value ([1]; pH 2.0, 313.15 K) was 43.2%. For the same molecule, the “apparent stability constant (KCS)” value ([1]; pH 2.0, 313.15 K) was 623.6 ± 60.0 M⁻¹, the “ability for complex formation with CD, racemic compound as compared to R-isomer” value ([1]; pH 2.0 stability constants (Table 2)) was 1.3 fold and the “CE decrease with the temperature growth” value ([1]; pH 7.4) was 17 fold. For the same molecule, the “Complexation efficiency (CE)” value ([1]; pH 7.4, 298.15 K) was 10.3%, the “Complexation efficiency (CE)” value ([1]; pH 7.4, 303.15 K) was 4.6% and the “Complexation efficiency (CE)” value ([1]; pH 7.4, 310.15 K) was 1.7%. The “Complexation efficiency (CE)” value ([1]; pH 7.4, 313.15 K) was 0.6%, the “effect of CD on the solubility (enhancement)” value ([2]; acidic buffer, 298.15 K) was 28 fold and the “effect of CD on the solubility (enhancement)” value ([2]; buffer pH 7.4, 298.15 K) was 148 fold. For the same molecule, the “Experimental solubility (S2)” value ([2]; pH 2.0, 298.15 K, 2-HP-β-CD 0 M, S2 10^3/M) was 0.50 ± 0.01 10^3/M, the “Experimental solubility (S2)” value ([2]; pH 2.0, 298.15 K, 2-HP-β-CD 0.01 M, S2 10^3/M) was 3.37 ± 0.08 10^3/M and the “Experimental solubility (S2)” value ([2]; pH 2.0, 298.15 K, 2-HP-β-CD 0.03 M, S2 10^3/M) was 8.10 ± 0.22 10^3/M. The “Experimental solubility (S2)” value ([2]; pH 2.0, 298.15 K, 2-HP-β-CD 0.04 M, S2 10^3/M) was 10.90 ± 0.31 10^3/M, the “Experimental solubility (S2)” value ([2]; pH 2.0, 298.15 K, 2-HP-β-CD 0.05 M, S2 10^3/M) was 13.80 ± 0.40 10^3/M and the “Experimental solubility (S2)” value ([2]; pH 2.0, 303.15 K, 2-HP-β-CD 0 M, S2 10^3/M) was 0.54 ± 0.01 10^3/M. For the same molecule, the “Experimental solubility (S2)” value ([2]; pH 2.0, 303.15 K, 2-HP-β-CD 0.01 M, S2 10^3/M) was 3.40 ± 0.04 10^3/M, the “Experimental solubility (S2)” value ([2]; pH 2.0, 303.15 K, 2-HP-β-CD 0.03 M, S2 10^3/M) was 8.37 ± 0.18 10^3/M and the “Experimental solubility (S2)” value ([2]; pH 2.0, 303.15 K, 2-HP-β-CD 0.04 M, S2 10^3/M) was 11.20 ± 0.19 10^3/M. For the same molecule, the “Experimental solubility (S2)” value ([2]; pH 2.0, 303.15 K, 2-HP-β-CD 0.05 M, S2 10^3/M) was 14.20 ± 0.22 10^3/M, the “Experimental solubility (S2)” value ([2]; pH 2.0, 310.15 K, 2-HP-β-CD 0 M, S2 10^3/M) was 0.61 ± 0.02 10^3/M and the “Experimental solubility (S2)” value ([2]; pH 2.0, 310.15 K, 2-HP-β-CD 0.01 M, S2 10^3/M) was 3.64 ± 0.04 10^3/M. The “Experimental solubility (S2)” value ([2]; pH 2.0, 310.15 K, 2-HP-β-CD 0.03 M, S2 10^3/M) was 8.68 ± 0.19 10^3/M, the “Experimental solubility (S2)” value ([2]; pH 2.0, 310.15 K, 2-HP-β-CD 0.04 M, S2 10^3/M) was 11.79 ± 0.33 10^3/M and the “Experimental solubility (S2)” value ([2]; pH 2.0, 310.15 K, 2-HP-β-CD 0.05 M, S2 10^3/M) was 14.88 ± 0.24 10^3/M. For the same molecule, the “Experimental solubility (S2)” value ([2]; pH 2.0, 313.15 K, 2-HP-β-CD 0 M, S2 10^3/M) was 0.69 ± 0.02 10^3/M, the “Experimental solubility (S2)” value ([2]; pH 2.0, 313.15 K, 2-HP-β-CD 0.01 M, S2 10^3/M) was 3.97 ± 0.03 10^3/M and the “Experimental solubility (S2)” value ([2]; pH 2.0, 313.15 K, 2-HP-β-CD 0.03 M, S2 10^3/M) was 9.30 ± 0.31 10^3/M. The “Experimental solubility (S2)” value ([2]; pH 2.0, 313.15 K, 2-HP-β-CD 0.04 M, S2 10^3/M) was 12.90 ± 0.33 10^3/M, the “Experimental solubility (S2)” value ([2]; pH 2.0, 313.15 K, 2-HP-β-CD 0.05 M, S2 10^3/M) was 15.90 ± 0.40 10^3/M and the “order of the solubility” value ([2]; pH 2.0) was “(FCZ) > (RS-186 ≥ R-98) > (L-173)”. The “solubility in pure buffer solution” value ([2]; pH 2.0) was 500 µM (≈ 310 µg/mL), the “solubility of RS-186 greater than R-98” value ([2]; pH 7.4) was 1.5 fold and the “Experimental solubility (S2)” value ([2]; pH 7.4, 298.15 K, 2-HP-β-CD 0 M, S2 10^4/M) was 0.27 ± 0.01 10^4/M. For the same molecule, the “Experimental solubility (S2)” value ([2]; pH 7.4, 298.15 K, 2-HP-β-CD 0.01 M, S2 10^4/M) was 3.15 ± 0.02 10^4/M, the “Experimental solubility (S2)” value ([2]; pH 7.4, 298.15 K, 2-HP-β-CD 0.03 M, S2 10^4/M) was 20.00 ± 0.32 10^4/M and the “Experimental solubility (S2)” value ([2]; pH 7.4, 298.15 K, 2-HP-β-CD 0.04 M, S2 10^4/M) was 30.70 ± 0.51 10^4/M. The “Experimental solubility (S2)” value ([2]; pH 7.4, 298.15 K, 2-HP-β-CD 0.05 M, S2 10^4/M) was 40.20 ± 0.58 10^4/M, the “Experimental solubility (S2)” value ([2]; pH 7.4, 303.15 K, 2-HP-β-CD 0 M, S2 10^4/M) was 0.30 ± 0.01 10^4/M and the “Experimental solubility (S2)” value ([2]; pH 7.4, 303.15 K, 2-HP-β-CD 0.01 M, S2 10^4/M) was 2.74 ± 0.03 10^4/M. The “Experimental solubility (S2)” value ([2]; pH 7.4, 303.15 K, 2-HP-β-CD 0.03 M, S2 10^4/M) was 10.60 ± 0.33 10^4/M, the “Experimental solubility (S2)” value ([2]; pH 7.4, 303.15 K, 2-HP-β-CD 0.04 M, S2 10^4/M) was 15.60 ± 0.41 10^4/M and the “Experimental solubility (S2)” value ([2]; pH 7.4, 303.15 K, 2-HP-β-CD 0.05 M, S2 10^4/M) was 20.10 ± 0.21 10^4/M. The “Experimental solubility (S2)” value ([2]; pH 7.4, 310.15 K, 2-HP-β-CD 0 M, S2 10^4/M) was 0.35 ± 0.01 10^4/M, the “Experimental solubility (S2)” value ([2]; pH 7.4, 310.15 K, 2-HP-β-CD 0.01 M, S2 10^4/M) was 1.93 ± 0.03 10^4/M and the “Experimental solubility (S2)” value ([2]; pH 7.4, 310.15 K, 2-HP-β-CD 0.03 M, S2 10^4/M) was 5.01 ± 0.05 10^4/M. The “Experimental solubility (S2)” value ([2]; pH 7.4, 310.15 K, 2-HP-β-CD 0.04 M, S2 10^4/M) was 6.97 ± 0.08 10^4/M, the “Experimental solubility (S2)” value ([2]; pH 7.4, 310.15 K, 2-HP-β-CD 0.05 M, S2 10^4/M) was 8.58 ± 0.08 10^4/M and the “Experimental solubility (S2)” value ([2]; pH 7.4, 313.15 K, 2-HP-β-CD 0 M, S2 10^4/M) was 0.37 ± 0.01 10^4/M. For the same molecule, the “Experimental solubility (S2)” value ([2]; pH 7.4, 313.15 K, 2-HP-β-CD 0.01 M, S2 10^4/M) was 1.37 ± 0.06 10^4/M, the “Experimental solubility (S2)” value ([2]; pH 7.4, 313.15 K, 2-HP-β-CD 0.03 M, S2 10^4/M) was 2.50 ± 0.03 10^4/M and the “Experimental solubility (S2)” value ([2]; pH 7.4, 313.15 K, 2-HP-β-CD 0.04 M, S2 10^4/M) was 3.20 ± 0.05 10^4/M. The “Experimental solubility (S2)” value ([2]; pH 7.4, 313.15 K, 2-HP-β-CD 0.05 M, S2 10^4/M) was 3.65 ± 0.05 10^4/M, the “order of the solubility” value ([2]; pH 7.4) was “(FCZ) > (R-98 ≥ RS-186) >> (L-173)” and the “solubility in pure buffer solution” value ([2]; pH 7.4) was 27 µM (≈ 16.7 µg/mL).

From PMC9025555, “Chiral Recognition R- and RS- of New Antifungal: Complexation/Solubilization/Dissolution Thermodynamics and Permeability Assay” (Pharmaceutics, 2022)
